Activity calls are given as the source filed them. No cut-off for these calls is given here.
What was measured:
[1] = Volume of distribution at steady state in Beagle dog at 2 mg/kg, iv measured for 24 hrs by LC-MS/MS analysis; assay type: ADME, organism-based, Canis lupus familiaris; settings: in vivo, read-out: Vdss
[2] = target: T1, Cytochrome P450 2C8 (Homo sapiens, UniProt P10632); experiment: Inhibition of CYP2C8 in human liver microsomes at 0.1 to 25 uM using amodiaquine as substrate by LC/MS analysis; assay type: ADME
T1 sequence (P10632 whole entry): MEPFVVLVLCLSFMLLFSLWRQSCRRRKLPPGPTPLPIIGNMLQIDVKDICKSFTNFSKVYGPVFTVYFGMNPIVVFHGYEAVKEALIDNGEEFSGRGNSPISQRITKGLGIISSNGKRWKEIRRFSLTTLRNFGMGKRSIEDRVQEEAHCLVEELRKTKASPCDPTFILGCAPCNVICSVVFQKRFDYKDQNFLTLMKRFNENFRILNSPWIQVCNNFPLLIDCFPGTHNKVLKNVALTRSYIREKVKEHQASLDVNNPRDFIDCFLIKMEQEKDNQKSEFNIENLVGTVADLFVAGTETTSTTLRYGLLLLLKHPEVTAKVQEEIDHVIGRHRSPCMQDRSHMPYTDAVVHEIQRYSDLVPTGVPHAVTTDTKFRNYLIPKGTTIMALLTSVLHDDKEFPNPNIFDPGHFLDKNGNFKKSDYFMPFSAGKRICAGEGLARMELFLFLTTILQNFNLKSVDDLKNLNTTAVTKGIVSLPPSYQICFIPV

[3] = tested on: SU-DHL-6; experiment: Cytotoxicity against human SUDHL6 cells assessed as reduction in cell viability incubated for 4 days by celltiter glo luminescent assay; assay type: functional, cell-based; settings: SU-DHL-6, 96 h
[4] = Hepatotoxicity in Beagle dog measured on day 28; assay type: toxicity, Canis lupus familiaris; settings: in vivo
[5] = Clearance in cynomolgus monkey at 2 mg/kg, iv measured for 24 hrs by LC-MS/MS analysis; assay type: ADME, organism-based, Macaca fascicularis; settings: in vivo
[6] = target: T2, Phosphatidylinositol 4,5-bisphosphate 3-kinase catalytic subunit delta isoform (Homo sapiens, UniProt O00329); experiment: Inhibition of PI3Kdelta in human Ramos cells assessed as reduction in AKT phosphorylation incubated for 2 hrs by Alexa flour 488 based FACS analysis; assay type: cell-based
T2 sequence (O00329 whole entry): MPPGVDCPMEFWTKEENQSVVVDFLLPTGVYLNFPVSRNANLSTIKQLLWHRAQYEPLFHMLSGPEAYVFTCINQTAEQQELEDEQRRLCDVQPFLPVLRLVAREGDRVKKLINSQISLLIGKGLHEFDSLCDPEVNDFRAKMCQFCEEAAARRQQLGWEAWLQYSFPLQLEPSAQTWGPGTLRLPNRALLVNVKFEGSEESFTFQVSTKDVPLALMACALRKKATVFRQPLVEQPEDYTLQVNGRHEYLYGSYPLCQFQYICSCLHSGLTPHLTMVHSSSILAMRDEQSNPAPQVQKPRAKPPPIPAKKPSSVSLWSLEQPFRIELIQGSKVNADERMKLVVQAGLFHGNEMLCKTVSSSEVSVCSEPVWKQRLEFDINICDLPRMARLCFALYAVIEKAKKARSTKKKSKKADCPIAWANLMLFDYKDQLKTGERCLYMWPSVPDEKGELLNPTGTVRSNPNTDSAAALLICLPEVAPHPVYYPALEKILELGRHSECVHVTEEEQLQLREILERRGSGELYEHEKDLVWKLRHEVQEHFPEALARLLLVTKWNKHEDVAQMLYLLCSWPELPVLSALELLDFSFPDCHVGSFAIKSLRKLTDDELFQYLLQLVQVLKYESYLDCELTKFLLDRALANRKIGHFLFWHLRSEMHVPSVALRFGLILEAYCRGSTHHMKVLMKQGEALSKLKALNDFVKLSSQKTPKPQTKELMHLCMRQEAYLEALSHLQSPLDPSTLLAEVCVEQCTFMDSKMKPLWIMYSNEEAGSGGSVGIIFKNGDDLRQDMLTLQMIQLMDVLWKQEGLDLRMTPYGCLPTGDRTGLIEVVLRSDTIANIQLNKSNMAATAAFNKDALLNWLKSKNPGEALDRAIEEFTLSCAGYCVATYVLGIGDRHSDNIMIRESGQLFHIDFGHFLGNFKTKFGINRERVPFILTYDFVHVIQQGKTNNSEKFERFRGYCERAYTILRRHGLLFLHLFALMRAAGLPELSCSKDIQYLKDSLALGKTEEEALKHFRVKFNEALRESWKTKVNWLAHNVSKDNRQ

[7] = target: T3, Cytochrome P450 1A2 (Homo sapiens, UniProt P05177); experiment: Inhibition of CYP1A2 in human liver microsomes at 0.1 to 25 uM using 7-ethoxyresorufin as substrate by LC/MS analysis; assay type: ADME
T3 sequence (P05177 whole entry): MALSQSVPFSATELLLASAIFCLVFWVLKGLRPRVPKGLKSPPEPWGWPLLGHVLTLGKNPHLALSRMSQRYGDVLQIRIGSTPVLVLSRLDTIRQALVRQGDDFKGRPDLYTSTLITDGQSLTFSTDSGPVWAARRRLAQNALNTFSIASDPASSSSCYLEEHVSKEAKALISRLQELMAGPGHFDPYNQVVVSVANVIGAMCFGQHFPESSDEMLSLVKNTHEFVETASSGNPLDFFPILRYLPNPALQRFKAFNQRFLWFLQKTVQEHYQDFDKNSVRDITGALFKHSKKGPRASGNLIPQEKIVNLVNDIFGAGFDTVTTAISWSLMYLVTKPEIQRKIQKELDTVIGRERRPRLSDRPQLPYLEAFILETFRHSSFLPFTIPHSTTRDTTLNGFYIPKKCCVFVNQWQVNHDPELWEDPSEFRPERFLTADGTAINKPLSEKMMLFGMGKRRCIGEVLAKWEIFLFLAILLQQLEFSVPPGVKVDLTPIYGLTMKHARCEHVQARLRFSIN

[8] = target: T4, Phosphatidylinositol 4,5-bisphosphate 3-kinase catalytic subunit delta isoform (Homo sapiens) (UniProt O00329)
T4 sequence (whole entry): T2 sequence (O00329 whole entry)
Description: (§1) Inhibition of PI3Kdelta (unknown origin) using D-myophosphatidylinositol 4,5-bisphosphate as substrate incubated for 120 mins by [gamma-33P]ATP based SPA assay

[9] = Volume of distribution at steady state in rat at 4 mg/kg, iv measured for 24 hrs by LC-MS/MS analysis; assay type: ADME, organism-based; settings: in vivo, read-out: Vdss
[10] = target: Phosphatidylinositol 4,5-bisphosphate 3-kinase catalytic subunit gamma isoform (Homo sapiens, UniProt P48736); experiment: Inhibition of PI3Kgamma (unknown origin) using D-myophosphatidylinositol 4,5-bisphosphate as substrate incubated for 120 mins by [gamma-33P]-ATP based scintillation counting method
[11] = target: T2, Phosphatidylinositol 4,5-bisphosphate 3-kinase catalytic subunit delta isoform
Description: as §1

[12] = Tmax in rat at 4 mg/kg, po measured for 24 hrs by LC-MS/MS analysis; assay type: ADME, organism-based; settings: in vivo
[13] = Permeability across apical to basolateral side in human Caco2 cells at 50 uM incubated for 120 mins by LC/MS analysis; assay type: ADME, cell-based; settings: Caco-2, read-out: permeability
[14] = target: Cytochrome P450 3A4 (Homo sapiens, UniProt P08684); experiment: Inhibition of CYP3A4 in human liver microsomes at 0.1 to 25 uM using testosterone as substrate by LC/MS analysis; assay type: ADME
Chain of Cytochrome P450 3A4 (P08684 whole entry): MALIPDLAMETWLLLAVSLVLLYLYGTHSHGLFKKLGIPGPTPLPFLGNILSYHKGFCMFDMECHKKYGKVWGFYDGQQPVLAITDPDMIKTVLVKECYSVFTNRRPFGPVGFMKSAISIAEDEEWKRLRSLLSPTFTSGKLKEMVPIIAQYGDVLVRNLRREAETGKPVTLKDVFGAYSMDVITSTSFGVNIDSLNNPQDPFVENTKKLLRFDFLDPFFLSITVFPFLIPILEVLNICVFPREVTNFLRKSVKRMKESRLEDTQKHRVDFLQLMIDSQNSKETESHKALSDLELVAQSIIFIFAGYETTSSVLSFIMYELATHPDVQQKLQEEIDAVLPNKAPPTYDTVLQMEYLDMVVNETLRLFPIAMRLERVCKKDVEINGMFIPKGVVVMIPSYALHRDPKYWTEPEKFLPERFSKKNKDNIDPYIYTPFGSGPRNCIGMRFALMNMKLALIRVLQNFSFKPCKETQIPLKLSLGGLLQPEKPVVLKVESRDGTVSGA

Chain of Phosphatidylinositol 4,5-bisphosphate 3-kinase catalytic subunit gamma isoform (P48736 whole entry, canonical isoform): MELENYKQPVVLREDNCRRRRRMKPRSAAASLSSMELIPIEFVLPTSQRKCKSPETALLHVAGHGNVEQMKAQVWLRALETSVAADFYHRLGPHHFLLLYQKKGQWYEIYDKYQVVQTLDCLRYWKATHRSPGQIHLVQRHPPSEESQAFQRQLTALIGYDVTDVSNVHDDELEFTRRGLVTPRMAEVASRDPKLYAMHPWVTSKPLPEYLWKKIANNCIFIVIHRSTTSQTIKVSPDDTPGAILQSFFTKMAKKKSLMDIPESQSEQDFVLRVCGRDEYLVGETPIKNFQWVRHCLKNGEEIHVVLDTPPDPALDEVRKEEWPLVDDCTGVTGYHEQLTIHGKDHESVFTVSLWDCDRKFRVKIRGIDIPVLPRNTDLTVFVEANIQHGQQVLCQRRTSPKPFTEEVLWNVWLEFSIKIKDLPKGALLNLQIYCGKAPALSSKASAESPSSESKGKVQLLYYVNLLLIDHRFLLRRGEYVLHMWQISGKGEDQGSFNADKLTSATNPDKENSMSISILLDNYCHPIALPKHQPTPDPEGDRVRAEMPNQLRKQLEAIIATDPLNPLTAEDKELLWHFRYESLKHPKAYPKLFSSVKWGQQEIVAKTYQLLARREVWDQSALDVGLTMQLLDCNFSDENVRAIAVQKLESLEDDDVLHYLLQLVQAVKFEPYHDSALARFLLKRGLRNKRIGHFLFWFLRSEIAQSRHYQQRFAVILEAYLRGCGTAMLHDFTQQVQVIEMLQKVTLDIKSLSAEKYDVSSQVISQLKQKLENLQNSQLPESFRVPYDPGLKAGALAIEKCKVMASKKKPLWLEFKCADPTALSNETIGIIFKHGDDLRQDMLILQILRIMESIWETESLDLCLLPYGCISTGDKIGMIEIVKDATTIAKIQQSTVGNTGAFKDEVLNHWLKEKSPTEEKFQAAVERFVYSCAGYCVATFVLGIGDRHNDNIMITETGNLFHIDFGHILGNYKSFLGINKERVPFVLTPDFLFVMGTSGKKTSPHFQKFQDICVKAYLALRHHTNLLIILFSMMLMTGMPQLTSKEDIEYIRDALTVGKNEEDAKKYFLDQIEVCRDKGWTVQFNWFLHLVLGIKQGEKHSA

Which Vd [1] does the source give for CCOc1c([C@H](C)n2nc(C)c3c(N)ncnc32)cc(Cl)c(F)c1[C@@H]1CNC(=O)C1 [PARSACLISIB] here?
Its Vd is 0.32 L/kg.

What about the “inhibition (INH)” value [2] of the same molecule?
The value was “Not Active”.

And the IC50 [3]?
The IC50 was 1.6 nM.

What about the Activity [4] of the same molecule?
The Activity was “Non-Toxic”.

What about the CL [5] of the same molecule?
Its CL is 5%.

What about the IC50 [6] of the same molecule?
The IC50 was 1.1 nM.

What about the “inhibition (INH)” value [7] of the same molecule?
Its value is “Not Active”.

And the inhibition [8]?
The inhibition was “inactive”.

What about the Vd [9] of the same molecule?
The Vd was 1.54 L/kg.

What about the IC50 [10] of the same molecule?
The IC50 was > 10000 nM.

What about the IC50 [11] of the same molecule?
Its IC50 is < 1 nM.

And the Tmax [12]?
The Tmax was 18 min.

And the Papp A→B at 2 h, 50 µM [13]?
The Papp A→B at 2 h, 50 µM was 10 nm/s.

And the “inhibition (INH)” value [14]?
Its value is “Not Active”.

Reference: ChEMBL document CHEMBL4406913, “INCB050465 (Parsaclisib), a Novel Next-Generation Inhibitor of Phosphoinositide 3-Kinase Delta (PI3Kδ)” (ACS Med Chem Lett, 2019)
